Results as given in patent US4879311A, “Derivatives of benzoyloxyacetic acid, and preparation and formulations thereof for therapeutic use” (Inverni della Beffa S.p.A., priority 1987, dated 1989).
Like-named read-outs stand apart in the source and are kept apart here.

How the values were obtained:
[1] = test system: writhing induced by phenylquinone; experiment: phenylquinone writhing test, oral administration; type: in vivo, mouse; details: oral
Method: (§1) The anti-inflammatory and analgesic activity of compound Ib was tested after oral administration in the carrageenin oedema test in the rat (C. A. Winter et al. Proc. Soc. Exp. Biol. Med., 111, 544, 1962), in the phenylquinone writhing test (I. C. Hendershot and J. J. Forsaith, Pharmacol. Exp. Ther., 125, 237, 1959) and in the hot plate test on the mouse (N. B. Eddy and D. J. Leimbach, J. Pharmacol. Exp. Ther., 107, 385, 1953). The activity of the compound was compared with equimolecular doses of sodium meclofenamate. A comparison was also made between the acute toxicity of the two substances by measuring the oral LD 50 on the rat.
The substances under test were administered by a stomach probe 1 hour before intraperitoneal injection of phenylquinone (2 mg/kg). The abdominal contractions of the treated animals and the controls were counted during every 10 minutes for half an hour.

[2] = test system: 6-day old air pouch irritated by carrageenan; experiment: irritation of 6-day old air pouch by carrageenan in the rat; type: in vivo; details: os
Method: (2) Irritation of 6-day old air pouch by carrageenan in the rat (A. D. Sedgwick, Y. M. Sin, A. R. Mackay, A. Al-Duaij and D. A. Willoughby; J. Pharm. Pharmacol.; 36, 171, 1984).
The formation of a dorsal pouch was induced in the rat by dorsal subcutaneous administration of 20 ml of air. 10 ml of air were then injected every day for three consecutive days in order to keep the cavity permeable. Six days after the first injection of air, the dorsal pouch in the animals was treated with 1 ml of 1% carrageenan in physiological solution.
Compound Ib was administered by gastric probe, 24 hours and 1 hour before administration of the irritating agent.
The animals, dividedinto groups of five, were killed 4 hours and 24 hours after the carrageenan. The volume of the exudate and the total number of leucocytes were measured.

[3] = test system: arachidonic acid oedema; experiment: arachidonic acid oedema in the rat, oral administration; type: in vivo; details: for change of Increase of Original Volume (in parentheses), 60 min: vs controls
Method: (1) Arachidonic acid oedema in the rat (M. J. Di Martino, G. C. Campbell Jnr., C. E. Wolff and N. Hanna, Agents and Actions; 21, 303, 1987)
Compound Ib was administered by gastric probe one hour before subplantar injection of 0.1 ml of 0.5% arachidonic acid in carbonate buffer (pH 8-8.2).
The volume of the paws of the treated animals and of the control was measured with a plethysmometer immediately and 60 minutes after the irritating agent (peak time of oedema).

[4] = test system: carrageenin oedema; experiment: carrageenin oedema test in the rat, oral administration; type: in vivo; details: rat, oral; for % change of increase of original volume, 1 h / % change of increase of original volume, 2 h / % change of increase of original volume, 3 h / % change of increase of original volume, 4 h / % change of increase of original volume, 5 h: vs controls
Method: as §1
The substances under test, dissolved in distilled water, were administered by a stomach probe 1 hour before subplantar injection of carrageenin (1% in sterile 0.9% NaCl aqueous solution). […]

[5] = test system: rat; experiment: acute toxicity on the rat, oral LD50; type: in vivo; details: oral LD50, probit method
Method: as §1
(§2) The two LD 50 values were calculated by the probit method.

[6] = acute toxicity on the rat, oral LD50; type: in vivo; details: rat, in vivo, po
Method: as §1, §2

[7] = test system: reaction time to heat (hot plate); type: in vivo, mouse; details: oral; for Percentages of mice protected at 30 minutes / Percentages of mice protected at 60 minutes: reaction time 15 seconds or more, 55° C.
Method: as §1
The substances under test were administered by a stomach probe to preselected mice. The controls and the treated animals were placed on the hot plate (55° C.) one at a time immediately after treatment. The reaction time to heat, was measured 30 and 60 minutes after treatment. Animals were considered protected when the reaction time was 15 seconds or more.

[8] = pH of aqueous solution; type: physicochemical; details: 1% aqueous solution (Ib)
[9] = Ib 12.7 mg/kg, sodium meclofenamate 11.0 mg/kg
[10] = Ib 25.4 mg/kg, sodium meclofenamate 22.0 mg/kg
[11] = dose corresponding to 10 mg/kg meclofenamic acid (Ib 12.7 mg/kg; sodium meclofenamate 11.0 mg/kg)
[12] = dose corresponding to 10 mg/kg meclofenamic acid (Ib 12.7 mg/kg; sodium meclofenamate 11.0 mg/kg), **P < 0.01 vs controls
[13] = dose corresponding to 20 mg/kg meclofenamic acid (Ib 25.4 mg/kg; sodium meclofenamate 22.0 mg/kg), **P < 0.01 vs controls
[14] = Ib 31.75 mg/kg × 2 (**P < 0.01), sodium meclofenamate 27.5 mg/kg × 2 (*P < 0.05 vs controls), 24 h
[15] = Ib 31.75 mg/kg × 2, sodium meclofenamate 27.5 mg/kg × 2, 4 h, vs controls
[16] = Ib 31.75 mg/kg × 2, sodium meclofenamate 27.5 mg/kg × 2, 24 h, vs controls
[17] = Ib 12.7 mg/kg, sodium meclofenamate 11 mg/kg
[18] = dose corresponding to 10 mg/kg meclofenamic acid
[19] = dose corresponding to 20 mg/kg meclofenamic acid (Ib 25,4 mg/kg; sodium meclofenamate 22,0 mg/kg), **P < 0.01 vs controls
[20] = dose corresponding to 20 mg/kg meclofenamic acid
[21] = Ib 25.4 mg/kg, sodium meclofenamate 22 mg/kg

## Cc1ccc(Cl)c(Nc2ccccc2C(=O)O)c1Cl [Sodium meclofenamate, sodium meclofenamate, reference compound]
[1]; [9]
  % Protection, 0-10 minutes: 52%
  % Protection, 10-20 minutes: 20%
  % Protection, 20-30 minutes: 40%
  % Protection, total: 43%
[1]; [10]
  % Protection, 0-10 minutes: 60%
  % Protection, 10-20 minutes: 33%
  % Protection, 20-30 minutes: 46%
  % Protection, total: 53%
[1]; [11]
  Writhing (m ± s.e.) during 10-20 minutes: 16.5 ± 1.0
  Writhing (m ± s.e.) during 20-30 minutes: 8.6 ± 0.4
[1]; [12]
  Writhing (m ± s.e.) during 0-10 minutes: 12.0 ± 1.6
  Writhing (m ± s.e.), total minutes: 34.2 ± 1.5
[1]; dose corresponding to 20 mg/kg meclofenamic acid (Ib 25.4 mg/kg; sodium meclofenamate 22.0 mg/kg)
  Writhing (m ± s.e.) during 10-20 minutes: 13.7 ± 1.5
[1]; [13]
  Writhing (m ± s.e.) during 0-10 minutes: 10.0 ± 1.1
  Writhing (m ± s.e.) during 20-30 minutes: 7.7 ± 0.8
  Writhing (m ± s.e.), total minutes: 28.0 ± 2.9
[2]; [14]
  Leucocytes (m ± s.e.), 24 h: 40.14 ± 11.99 × 10^6
  Volume of exudate (m ± s.e.), 24 h: 0.52 ± 0.12 mL
[2]; Ib 31.75 mg/kg × 2 (*P < 0.05 vs controls), sodium meclofenamate 27.5 mg/kg × 2, 4 h
  Leucocytes (m ± s.e.), 4 h: 4.36 ± 1.76 × 10^6
[2]; [15]
  change of leucocytes (in parentheses), 4 h: -2
  change of volume of exudate (in parentheses), 4 h: -6
[2]; [16]
  change of leucocytes (in parentheses), 24 h: -52
  change of volume of exudate (in parentheses), 24 h: -42
[2]; dose corresponding to 25 mg/kg meclofenamic acid × 2 (Ib 31.75; sodium meclofenamate 27.5 mg/kg), 4 h
  Volume of exudate (m ± s.e.), 4 h: 0.30 ± 0.05 mL
[3]; [17]
  change of Increase of Original Volume (in parentheses), 60 min: -6
[3]; Ib 38.1 mg/kg, sodium meclofenamate 33 mg/kg
  change of Increase of Original Volume (in parentheses), 60 min: -29
[3]; dose corresponding to 10 mg/kg meclofenamic acid (Ib 12.7 mg/kg; sodium meclofenamate 11 mg/kg)
  Increase of Original Volume (m ± s.e.), 60 min: 0.58 ± 0.05
[3]; dose corresponding to 30 mg/kg meclofenamic acid (Ib 38.1 mg/kg, **P < 0.01; sodium meclofenamate 33 mg/kg, *P < 0.05 vs controls)
  Increase of Original Volume (m ± s.e.), 60 min: 0.44 ± 0.06
[3]; rat, oedema reduced in statistically significant manner
  statistically significant dose as fraction of the LD50: 1/4
[4]; [11]
  Increase of original volume (m ± s.e.), 1 h: 0.41 ± 0.05 mL
  Increase of original volume (m ± s.e.), 2 h: 0.87 ± 0.10 mL
  Increase of original volume (m ± s.e.), 3 h: 1.42 ± 0.10 mL
  Increase of original volume (m ± s.e.), 4 h: 1.12 ± 0.07 mL
  Increase of original volume (m ± s.e.), 5 h: 1.39 ± 0.08 mL
[4]; [18]
  % change of increase of original volume, 1 h: -13%
  % change of increase of original volume, 2 h: -8%
  % change of increase of original volume, 3 h: -7%
  % change of increase of original volume, 4 h: -6%
  % change of increase of original volume, 5 h: -10%
[4]; dose corresponding to 20 mg/kg meclofenamic acid (Ib 25,4 mg/kg; sodium meclofenamate 22,0 mg/kg)
  Increase of original volume (m ± s.e.), 1 h: 0.36 ± 0.05 mL
[4]; dose corresponding to 20 mg/kg meclofenamic acid (Ib 25,4 mg/kg; sodium meclofenamate 22,0 mg/kg), *P < 0.05
  Increase of original volume (m ± s.e.), 2 h: 0.65 ± 0.05 mL
[4]; [19]
  Increase of original volume (m ± s.e.), 3 h: 0.77 ± 0.07 mL
  Increase of original volume (m ± s.e.), 4 h: 1.07 ± 0.09 mL
  Increase of original volume (m ± s.e.), 5 h: 1.24 ± 0.07 mL
[4]; [20]
  % change of increase of original volume, 1 h: -20%
  % change of increase of original volume, 2 h: -32%
  % change of increase of original volume, 3 h: -43%
  % change of increase of original volume, 4 h: -33%
  % change of increase of original volume, 5 h: -25%
[4]; vs sodium meclofenamate
  anti-inflammatory activity compared with reference (in words): behaved in similar manner
[4]; read-out: dose at which antagonism of the oedema is statistically significant
  minimal effective dose: 68 µmol/kg
[5]
  Slope: 7.402 ± 2.014
[6]; male and female rats, 20 days of observation, probit method, read-out: DL50
  LD50 at 480 h: 127 mg/kg
[6]; mg/kg meclofenamic acid, read-out: LD50 as corresponding meclofenamic acid
  LD50 at 480 h: 119 mg/kg
[7]; mouse
  activity in the hot plate test (in words): inactive
[7]; [17]
  Percentages of mice protected at 30 minutes: 0%
  Percentages of mice protected at 60 minutes: 0%
[7]; [21]
  Percentages of mice protected at 30 minutes: 0%
  Percentages of mice protected at 60 minutes: 0%
[8]
  pH of aqueous solution (in words): markedly alkaline pH
